Patent US20020028936A1, “1,3-disubstituted indolin-2-ones for neoplasia” (priority 1999, published 2002)

Key:
[1] = system: SW-480 colon adenocarcinoma cells; experiment: Apoptosis, DNA fragmentation (Cell Death Detection ELISA plus); type: cell-based; conditions: at 100 μM; SW-480 cells, 48 hrs incubation
Method: Apoptosis was measured based on the amount of fragmented DNA contained in cell lysates. Briefly, SW-480 colon adenocarcinoma cells were plated in 96-well microtitre plates (“MTP”) at a density of 10K cells/well in 180 μl and were incubated for 24 hrs. Cells were then treated with 20 μl aliquots of appropriately diluted compound, and allowed to incubate for an additional 48 hrs.
After the incubation, samples were prepared according to the following steps. The MTP was centrifuged (15 min., 1000 rpm) and the supernatant was carefully removed by fast inversion of the MTP. […] Samples were analyzed immediately, because storage at 4° C. or −20° C. reduces the ELISA-signals.
Samples were then processed according to a DNA fragmentation assay protocol, and dose-response curves were generated based on optical density readings. Quantification of DNA was done by a commercially available photometric enzyme-immunoassay manufactured by Mannheim-Boehringer under the name “Cell Death Detection ELISA^plus”. The assay is based on a quantitative sandwich-enzyme-immunoassay-principle using mouse monoclonal antibodies directed against DNA and histones, respectively. […] After removal of unbound antibodies by a washing step, the amount of nucleosomes is quantified by the POD retained in the immunocomplex. POD is determined photometrically with ABTS® (2,2′-Azino-di[3-ethylbenzthiazolin-sulfonate) as substrate. […]

[2] = system: human colon carcinoma cell line, HT-29; experiment: Growth inhibition, Sulforhodamine B (SRB) protein binding assay; type: cell-based; conditions: HT-29 cells, six days continuous exposure, read-out: IC50 value (concentration of drug needed to inhibit tumor cell growth by 50%)
Method: The compound of Example No. 1 was assayed for their growth inhibitory activity on the human colon carcinoma cell line, HT-29 obtained from ATCC (Rockville, Md.), to ascertain the degree of growth inhibition. Growth inhibition of this cell line is indicative of a benefit on precancerous lesions and neoplasms. The cell line and growth inhibition assay employed for such experiments are well characterized, and are used to evaluate the anti-neoplastic properties of substances. The assay is used by the United States National Cancer Institute in its screening program for new anti-cancer drugs.
Drug stock solutions were made in 100% DMSO and were then diluted with RPMI media for cell culture testing. All drug solutions were prepared fresh on the day of testing. The cultured cells were obtained at passage #99 and grown in RPMI media supplemented with 5% fetal calf serum, and 2 mM glutamine, 100 U/ml penicillin, […] streptomycin, and 0.25 μg/ml amphotericin. The cultures were maintained in a humidified atmosphere of 95% air and 5% CO2 at 37° C. The cultures were passaged at preconfluent densities using a solution of 0.05% trypsin and 0.53 mM EDTA. […]
Tumor cell growth inhibition was assessed using the Sulforhodamine B (SRB) protein binding assay. […] The dye was then solubilized, and the optical density of the resulting solution was determined on a 96-well plate reader. […]

[3] = target: T1, purified cyclooxygenase Type I (Ovis aries, UniProt P05979); experiment: Cyclooxygenase (COX) inhibition, purified COX; type: biochemical; conditions: 100 μM compound; COX purified from ram seminal vesicles; arachidonic acid 100 μM, 2.0 min at 37° C.
T1 construct: The COX was purified from ram seminal vesicles; from tissue; host or cells: ram seminal vesicles
T1 sequence (P05979 25-600): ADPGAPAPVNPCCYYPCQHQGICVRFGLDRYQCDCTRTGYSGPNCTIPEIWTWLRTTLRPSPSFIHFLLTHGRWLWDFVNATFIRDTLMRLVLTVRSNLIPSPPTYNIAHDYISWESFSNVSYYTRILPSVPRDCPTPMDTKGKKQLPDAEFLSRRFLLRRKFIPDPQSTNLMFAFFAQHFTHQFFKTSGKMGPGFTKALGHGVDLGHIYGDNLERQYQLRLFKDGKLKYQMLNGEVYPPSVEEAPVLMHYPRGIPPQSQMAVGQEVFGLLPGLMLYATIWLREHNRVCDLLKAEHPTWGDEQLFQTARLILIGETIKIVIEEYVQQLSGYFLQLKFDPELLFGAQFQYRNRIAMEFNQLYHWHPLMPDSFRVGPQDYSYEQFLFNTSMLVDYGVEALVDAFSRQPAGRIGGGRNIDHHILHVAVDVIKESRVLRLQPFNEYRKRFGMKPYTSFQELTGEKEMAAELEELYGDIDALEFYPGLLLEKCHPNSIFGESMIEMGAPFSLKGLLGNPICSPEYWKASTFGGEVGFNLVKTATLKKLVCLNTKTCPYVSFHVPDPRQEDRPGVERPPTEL
Method: The assay was terminated by the addition of TCA, and COX activity was determined by absorbance at 530 nm.

O=C1C(=Cc2ccccc2)c2ccccc2N1Cc1ccc(F)cc1 [Example 1, (Z, E) 1-(4-Fluorobenzyl)-3-Benzylidene-Indolin-2-One]
fold stimulation (apoptosis, fragmented DNA) [1]: 6 fold
IC50 [2]: ~7.3 µM
COX I % Inhibition (100 μM) [3]: <25%
